{"source": "patent US10959968B2", "about": "“Methods for treating c-Met-dependent cancers” (Board of Supervisors of Louisiana State University and …, priority 2016, dated 2021)", "key": {"[1]": {"test_system": "c-Met phosphorylation in MDA-MB-231, MCF-7, and BT-474 mammary tumor cells", "assay": "Western blot of HGF-induced c-Met activation in breast cancer cells", "type": "cell-based, human", "protocol": "FIG. 4. A) Effect of HVS treatment on HGF-induced c-Met activation in human breast cancer cells using Western Blot analysis. […] The visualization of β-tubulin was used as a loading control. (B) Effect of HVS on HGF-induced c-Met activation and its downstream mitogenic signaling in DU145 human prostate cancer cells, as compared to vehicle-treated control group, using Western Blot analysis. Cells were pre-treated for 30 minutes with either HVS at 0.1, 0.3, 1, and 5 μM or (−)-oleocanthal at 5, 10, and 20 μM doses in serum-free 0.4-media. 33 ng/mL HGF was then added for 30 minutes. Whole cell lysates were collected and assayed by Western Blot. The visualization of α-tubulin was used as a loading control. Representative Western Blots from each experiment are shown, N=3.\nActivation of c-Met prevents apoptosis and maintains cancer cell survival through activation of PI3K and subsequent Akt-NFκB activation."}, "[2]": {"test_system": "DU145 human prostate cancer cells (pMet, pAkt, pErk)", "assay": "Western blot of HGF-induced signaling in prostate cancer cells", "type": "cell-based", "settings": "30 min pretreatment, 30 min HGF", "protocol": "FIG. 4. A) Effect of HVS treatment on HGF-induced c-Met activation in human breast cancer cells using Western Blot analysis. Treatment with HVS caused a significant, dose-responsive inhibition of HGF-induced c-Met phosphorylation in MDA-MB-231, MCF-7, and BT-474 mammary tumor cells with no effect on total c-Met levels after treatment for 72 h, as compared to their respective vehicle-treated control groups. The visualization of β-tubulin was used as a loading control. (B) Effect of HVS on HGF-induced c-Met activation and its downstream mitogenic signaling in DU145 human prostate cancer cells, as compared to vehicle-treated control group, using Western Blot analysis. Cells were pre-treated for 30 minutes with either HVS at 0.1, 0.3, 1, and 5 μM or (−)-oleocanthal at 5, 10, and 20 μM doses in serum-free 0.4-media. 33 ng/mL HGF was then added for 30 minutes. Whole cell lysates were collected and assayed by Western Blot. The visualization of α-tubulin was used as a loading control. Representative Western Blots from each experiment are shown, N=3.\nDU145 prostate tumor cells were pretreated for 30 minutes with the indicated compounds. Following pretreatment, cells were pulsed for thirty minutes with HGF, cell lysates were prepared and western blot analysis was performed to identify pMet, pAkt, pErk and tubulin."}, "[3]": {"test_system": "non-tumorigenic human MCF10A mammary epithelial cells", "assay": "Viability of non-tumorigenic mammary epithelial cells", "type": "cell-based", "settings": "similar treatment doses; 24 h"}, "[4]": {"test_system": "MDA-MB-231/GFP human breast cancer cells", "assay": "Orthotopic breast cancer xenograft in athymic nude mice", "type": "in vivo", "settings": "10 mg/kg ip, 3×/week; end of study", "method": "Treatment regimens were administered 3×/week, starting 5 days postinoculation. (A) Left panel; tumor volume was evaluated periodically during treatment at the indicated days postinoculation. Tumor volume (V) was calculated by V=(L×W^2)/2, where L was the length and W was the width of tumors. Points, the mean of tumor volume in mm^3 of several tumors (n=5) during the course of the treatment period; bars±SEM. *P<0.05 as compared to vehicle-treated control. Right panel; shown are two mice harboring human breast cancer. […] Error bars indicate SEM for n=5. (C) Left panel; vertical bars indicate mean tumor weight at the end of the experiment.*P<0.05 as compared to the vehicle-treated control. Error bars indicate SEM for n=5.\nBreast tumor growth was compared between animals dosed ip with 10 mg/kg of HVS (n=5), 3×/week, starting on the 5th day post-inoculation and continuing for 4 weeks, vs. non-treated animals in a control group (DMSO). Tumor progression was followed by direct measurement of tumor volume starting 14 days after orthotopic cell inoculation."}, "[5]": {"test_system": "MDA-MB-231, MDA-MB-468, MCF-7 and BT-474 cells", "assay": "Growth of breast cancer cells without HGF, MTT assay", "type": "cell-based, human", "settings": "similar treatment doses; no HGF", "protocol": "FIG. 3. (A) Effect of HVS treatment on HGF-stimulated growth of Met-dependent MDA-MB-231, MDA-MB-468, MCF-7. and BT-474 breast cancer cells after 72 h treatment period, compared to DMSO as vehicle control. Viable cell count was determined using MTT assay. Vertical bars indicate the mean cell count±SEM of N=3 in each treatment group; (−)-oleocanthal was used as a positive control at 20 μM. (B) Effect of HVS treatment on HGF-stimulated growth of Met-independent T-47D breast cancer cells after 72 h treatment period. Viable cell count was determined using MTT assay. Vertical bars indicate the mean cell count±SEM of N=3 in each treatment group. (C) Cytotoxic effects of HVS on the highly metastatic MDA-MB-231 breast cancer cells at two different concentrations (30 and 60 μM) using LDH cytotoxicity assay. Triton X-100 was used as a positive control to cause the breakdown of all the cells and induce the total possible LDH release. (D) Effects of HVS treatment on the viability of non-tumorigenic human MCF10A mammary epithelial cells after a 24 h treatment period, compared to DMSO as vehicle control. (E) As in panel (A) but without HGF. […] Viable cell count was determined using MTT assay. Vertical bars indicate the mean cell count±SEM of N=3 in each treatment group; doxorubicin was used as a positive control at 10 μM dose. *P<0.05 as compared with vehicle treated control.\n[…]. […]"}}}
{"molecule": "COc1cc(CCOC(=O)/C=C/c2cc(OC)c(O)c(OC)c2)ccc1O", "note": "[Compound 8, (E)-4-hydroxy-3-methoxyph-ethyl 3-(4-hydroxy-3,5-dimethoxyphenyl) acrylate]", "values": [{"measurement": "HGF-induced c-Met phosphorylation", "setting": "[1]; 72 h treatment", "result": "significant inhibition"}, {"measurement": "total c-Met levels", "setting": "[1]; at the tested concentrations", "result": "did not affect"}, {"measurement": "HGF-induced (Met dependent) signaling", "setting": "[2]", "result": "effective even at submicromolar concentrations"}, {"measurement": "effect on non-tumorigenic human MCF10A cells", "setting": "[3]", "result": "no discernable effects"}, {"measurement": "reduction in tumor growth vs vehicle-treated control", "setting": "[4]", "result": 92, "unit": "%"}, {"measurement": "effect on growth in the absence of HGF", "setting": "[5]", "result": "no discernable effects"}]}
